Test system: 817829-284-R-J1-PDC complex spheroids, viability
Test: Anticancer human tumor 817829-284-R-J1-PDC patient-derived colon adenocarcinoma cell line growth inhibition [GQUAD]
Settings: curve of first compound; second compound 0.0316 µM
In short: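 Viability of tumor cells grown as complex spheroids with endothelial and stromal cells, exposed to drug combinations. Top concentration at or near clinical Cmax (else 10 microM), diluted in half-log increments.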
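Further: spheroids exposed to agents for 7 days before readout.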

SMILES | IC50 [nM]
C=CC(=O)N1CCN(c2nc(=O)n(-c3c(C)ccnc3C(C)C)c3nc(-c4c(O)cccc4F)c(F)cc23)C(C)C1 (stereo unspecified) + Cc1[nH]c2ccc(F)cc2c1-c1nc2c3cccnc3c3ncccc3c2[nH]1 | > 10000
CC(C)n1c(=O)n(C)c2cnc3cc(F)c(-c4ccc(OCCCN5CCCCC5)nc4)cc3c21 + Cc1[nH]c2ccc(F)cc2c1-c1nc2c3cccnc3c3ncccc3c2[nH]1 | > 10000
CCc1c2c(nc3ccc(O)cc13)-c1cc3c(c(=O)n1C2)COC(=O)[C@]3(O)CC + Cc1[nH]c2ccc(F)cc2c1-c1nc2c3cccnc3c3ncccc3c2[nH]1 | 1.74
COc1cc(C2c3cc4c(cc3C(OC3OC5COC(C)OC5C(O)C3O)C3COC(=O)C23)OCO4)cc(OC)c1O (stereo unspecified) + Cc1[nH]c2ccc(F)cc2c1-c1nc2c3cccnc3c3ncccc3c2[nH]1 | 184
COc1cccc2c1C(=O)c1c(O)c3c(c(O)c1C2=O)CC(O)(C(=O)CO)CC3OC1CC(N)C(O)C(C)O1 (stereo unspecified) + Cc1[nH]c2ccc(F)cc2c1-c1nc2c3cccnc3c3ncccc3c2[nH]1 | 88.3
Cc1cccc(N(C)C(=O)C2C(O)CCN2c2nc(C)cc(C(F)(F)F)c2C#N)c1 (stereo unspecified) + Cc1[nH]c2ccc(F)cc2c1-c1nc2c3cccnc3c3ncccc3c2[nH]1 | > 10000
O=C(c1cc(Cc2n[nH]c(=O)c3ccccc23)ccc1F)N1CCN(C(=O)C2CC2)CC1 + Cc1[nH]c2ccc(F)cc2c1-c1nc2c3cccnc3c3ncccc3c2[nH]1 | > 10000

Same assay, conditions: curve of first compound; second compound 0.1 µM

SMILES | IC50 [nM]
C=CC(=O)N1CCN(c2nc(=O)n(-c3c(C)ccnc3C(C)C)c3nc(-c4c(O)cccc4F)c(F)cc23)C(C)C1 (stereo unspecified) + Cc1[nH]c2ccc(F)cc2c1-c1nc2c3cccnc3c3ncccc3c2[nH]1 | > 10000
CC(C)n1c(=O)n(C)c2cnc3cc(F)c(-c4ccc(OCCCN5CCCCC5)nc4)cc3c21 + Cc1[nH]c2ccc(F)cc2c1-c1nc2c3cccnc3c3ncccc3c2[nH]1 | > 10000
CCc1c2c(nc3ccc(O)cc13)-c1cc3c(c(=O)n1C2)COC(=O)[C@]3(O)CC + Cc1[nH]c2ccc(F)cc2c1-c1nc2c3cccnc3c3ncccc3c2[nH]1 | 1.01
COc1cc(C2c3cc4c(cc3C(OC3OC5COC(C)OC5C(O)C3O)C3COC(=O)C23)OCO4)cc(OC)c1O (stereo unspecified) + Cc1[nH]c2ccc(F)cc2c1-c1nc2c3cccnc3c3ncccc3c2[nH]1 | 216
COc1cccc2c1C(=O)c1c(O)c3c(c(O)c1C2=O)CC(O)(C(=O)CO)CC3OC1CC(N)C(O)C(C)O1 (stereo unspecified) + Cc1[nH]c2ccc(F)cc2c1-c1nc2c3cccnc3c3ncccc3c2[nH]1 | 94.3
Cc1cccc(N(C)C(=O)C2C(O)CCN2c2nc(C)cc(C(F)(F)F)c2C#N)c1 (stereo unspecified) + Cc1[nH]c2ccc(F)cc2c1-c1nc2c3cccnc3c3ncccc3c2[nH]1 | > 10000
O=C(c1cc(Cc2n[nH]c(=O)c3ccccc23)ccc1F)N1CCN(C(=O)C2CC2)CC1 + Cc1[nH]c2ccc(F)cc2c1-c1nc2c3cccnc3c3ncccc3c2[nH]1 | > 10000

Same assay, conditions: curve of first compound; second compound 0.316 µM

SMILES | IC50 [nM]
C=CC(=O)N1CCN(c2nc(=O)n(-c3c(C)ccnc3C(C)C)c3nc(-c4c(O)cccc4F)c(F)cc23)C(C)C1 (stereo unspecified) + Cc1[nH]c2ccc(F)cc2c1-c1nc2c3cccnc3c3ncccc3c2[nH]1 | > 10000
CC(C)n1c(=O)n(C)c2cnc3cc(F)c(-c4ccc(OCCCN5CCCCC5)nc4)cc3c21 + Cc1[nH]c2ccc(F)cc2c1-c1nc2c3cccnc3c3ncccc3c2[nH]1 | > 10000
CCc1c2c(nc3ccc(O)cc13)-c1cc3c(c(=O)n1C2)COC(=O)[C@]3(O)CC + Cc1[nH]c2ccc(F)cc2c1-c1nc2c3cccnc3c3ncccc3c2[nH]1 | < 0.999
COc1cc(C2c3cc4c(cc3C(OC3OC5COC(C)OC5C(O)C3O)C3COC(=O)C23)OCO4)cc(OC)c1O (stereo unspecified) + Cc1[nH]c2ccc(F)cc2c1-c1nc2c3cccnc3c3ncccc3c2[nH]1 | 191
COc1cccc2c1C(=O)c1c(O)c3c(c(O)c1C2=O)CC(O)(C(=O)CO)CC3OC1CC(N)C(O)C(C)O1 (stereo unspecified) + Cc1[nH]c2ccc(F)cc2c1-c1nc2c3cccnc3c3ncccc3c2[nH]1 | 98.7
Cc1cccc(N(C)C(=O)C2C(O)CCN2c2nc(C)cc(C(F)(F)F)c2C#N)c1 (stereo unspecified) + Cc1[nH]c2ccc(F)cc2c1-c1nc2c3cccnc3c3ncccc3c2[nH]1 | > 10000
O=C(c1cc(Cc2n[nH]c(=O)c3ccccc23)ccc1F)N1CCN(C(=O)C2CC2)CC1 + Cc1[nH]c2ccc(F)cc2c1-c1nc2c3cccnc3c3ncccc3c2[nH]1 | > 10000

Same assay, conditions: curve of first compound; second compound 1 µM

SMILES | IC50 [nM]
C=CC(=O)N1CCN(c2nc(=O)n(-c3c(C)ccnc3C(C)C)c3nc(-c4c(O)cccc4F)c(F)cc23)C(C)C1 (stereo unspecified) + Cc1[nH]c2ccc(F)cc2c1-c1nc2c3cccnc3c3ncccc3c2[nH]1 | > 10000
CC(C)n1c(=O)n(C)c2cnc3cc(F)c(-c4ccc(OCCCN5CCCCC5)nc4)cc3c21 + Cc1[nH]c2ccc(F)cc2c1-c1nc2c3cccnc3c3ncccc3c2[nH]1 | 7830
CCc1c2c(nc3ccc(O)cc13)-c1cc3c(c(=O)n1C2)COC(=O)[C@]3(O)CC + Cc1[nH]c2ccc(F)cc2c1-c1nc2c3cccnc3c3ncccc3c2[nH]1 | < 0.999
COc1cc(C2c3cc4c(cc3C(OC3OC5COC(C)OC5C(O)C3O)C3COC(=O)C23)OCO4)cc(OC)c1O (stereo unspecified) + Cc1[nH]c2ccc(F)cc2c1-c1nc2c3cccnc3c3ncccc3c2[nH]1 | 214
COc1cccc2c1C(=O)c1c(O)c3c(c(O)c1C2=O)CC(O)(C(=O)CO)CC3OC1CC(N)C(O)C(C)O1 (stereo unspecified) + Cc1[nH]c2ccc(F)cc2c1-c1nc2c3cccnc3c3ncccc3c2[nH]1 | 84.4
Cc1cccc(N(C)C(=O)C2C(O)CCN2c2nc(C)cc(C(F)(F)F)c2C#N)c1 (stereo unspecified) + Cc1[nH]c2ccc(F)cc2c1-c1nc2c3cccnc3c3ncccc3c2[nH]1 | > 10000
O=C(c1cc(Cc2n[nH]c(=O)c3ccccc23)ccc1F)N1CCN(C(=O)C2CC2)CC1 + Cc1[nH]c2ccc(F)cc2c1-c1nc2c3cccnc3c3ncccc3c2[nH]1 | > 10000

Same assay, conditions: curve of first compound; second compound 3.16 µM

SMILES | IC50 [nM]
C=CC(=O)N1CCN(c2nc(=O)n(-c3c(C)ccnc3C(C)C)c3nc(-c4c(O)cccc4F)c(F)cc23)C(C)C1 (stereo unspecified) + Cc1[nH]c2ccc(F)cc2c1-c1nc2c3cccnc3c3ncccc3c2[nH]1 | 3260
CC(C)n1c(=O)n(C)c2cnc3cc(F)c(-c4ccc(OCCCN5CCCCC5)nc4)cc3c21 + Cc1[nH]c2ccc(F)cc2c1-c1nc2c3cccnc3c3ncccc3c2[nH]1 | 4570
CCc1c2c(nc3ccc(O)cc13)-c1cc3c(c(=O)n1C2)COC(=O)[C@]3(O)CC + Cc1[nH]c2ccc(F)cc2c1-c1nc2c3cccnc3c3ncccc3c2[nH]1 | < 0.999
COc1cc(C2c3cc4c(cc3C(OC3OC5COC(C)OC5C(O)C3O)C3COC(=O)C23)OCO4)cc(OC)c1O (stereo unspecified) + Cc1[nH]c2ccc(F)cc2c1-c1nc2c3cccnc3c3ncccc3c2[nH]1 | 113
COc1cccc2c1C(=O)c1c(O)c3c(c(O)c1C2=O)CC(O)(C(=O)CO)CC3OC1CC(N)C(O)C(C)O1 (stereo unspecified) + Cc1[nH]c2ccc(F)cc2c1-c1nc2c3cccnc3c3ncccc3c2[nH]1 | 64
Cc1cccc(N(C)C(=O)C2C(O)CCN2c2nc(C)cc(C(F)(F)F)c2C#N)c1 (stereo unspecified) + Cc1[nH]c2ccc(F)cc2c1-c1nc2c3cccnc3c3ncccc3c2[nH]1 | > 10000
O=C(c1cc(Cc2n[nH]c(=O)c3ccccc23)ccc1F)N1CCN(C(=O)C2CC2)CC1 + Cc1[nH]c2ccc(F)cc2c1-c1nc2c3cccnc3c3ncccc3c2[nH]1 | 4160

Same assay, conditions: curve of first compound; second compound 10 µM

SMILES | IC50 [nM]
C=CC(=O)N1CCN(c2nc(=O)n(-c3c(C)ccnc3C(C)C)c3nc(-c4c(O)cccc4F)c(F)cc23)C(C)C1 (stereo unspecified) + Cc1[nH]c2ccc(F)cc2c1-c1nc2c3cccnc3c3ncccc3c2[nH]1 | < 31.6
